These results are taken from ChEMBL document CHEMBL5465560, “Selectivity Literature for EUbOPEN Chemogenomic Library” (2024).

In test [1] the target is T1, Serine/threonine-protein kinase MAK (Homo sapiens) (UniProt P20794).
T1 sequence (whole entry): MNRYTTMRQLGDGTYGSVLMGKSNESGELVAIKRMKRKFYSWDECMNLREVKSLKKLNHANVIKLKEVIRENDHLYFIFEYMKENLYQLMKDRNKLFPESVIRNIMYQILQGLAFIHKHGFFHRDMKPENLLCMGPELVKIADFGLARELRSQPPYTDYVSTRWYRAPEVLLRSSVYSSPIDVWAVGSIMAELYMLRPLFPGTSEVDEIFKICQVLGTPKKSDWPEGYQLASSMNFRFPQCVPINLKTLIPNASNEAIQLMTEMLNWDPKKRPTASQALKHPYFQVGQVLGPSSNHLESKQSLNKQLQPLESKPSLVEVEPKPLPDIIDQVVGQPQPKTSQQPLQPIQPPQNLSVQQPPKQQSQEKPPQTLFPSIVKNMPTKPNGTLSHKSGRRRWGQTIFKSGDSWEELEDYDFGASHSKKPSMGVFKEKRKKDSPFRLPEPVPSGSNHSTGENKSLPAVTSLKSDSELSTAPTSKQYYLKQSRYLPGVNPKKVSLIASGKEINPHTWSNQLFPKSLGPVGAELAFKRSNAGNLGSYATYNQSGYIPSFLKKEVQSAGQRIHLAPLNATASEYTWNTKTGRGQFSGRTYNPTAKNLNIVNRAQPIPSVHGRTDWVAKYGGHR
The test is described as follows: Selectivity interaction (KinomeScan (DiscoverX)) EUB0000092b MAK. The following applies: at 10 µM.

Test [2] deals with T2, Mitogen-activated protein kinase kinase kinase 13 (Homo sapiens) (UniProt O43283).
T2 sequence (whole entry): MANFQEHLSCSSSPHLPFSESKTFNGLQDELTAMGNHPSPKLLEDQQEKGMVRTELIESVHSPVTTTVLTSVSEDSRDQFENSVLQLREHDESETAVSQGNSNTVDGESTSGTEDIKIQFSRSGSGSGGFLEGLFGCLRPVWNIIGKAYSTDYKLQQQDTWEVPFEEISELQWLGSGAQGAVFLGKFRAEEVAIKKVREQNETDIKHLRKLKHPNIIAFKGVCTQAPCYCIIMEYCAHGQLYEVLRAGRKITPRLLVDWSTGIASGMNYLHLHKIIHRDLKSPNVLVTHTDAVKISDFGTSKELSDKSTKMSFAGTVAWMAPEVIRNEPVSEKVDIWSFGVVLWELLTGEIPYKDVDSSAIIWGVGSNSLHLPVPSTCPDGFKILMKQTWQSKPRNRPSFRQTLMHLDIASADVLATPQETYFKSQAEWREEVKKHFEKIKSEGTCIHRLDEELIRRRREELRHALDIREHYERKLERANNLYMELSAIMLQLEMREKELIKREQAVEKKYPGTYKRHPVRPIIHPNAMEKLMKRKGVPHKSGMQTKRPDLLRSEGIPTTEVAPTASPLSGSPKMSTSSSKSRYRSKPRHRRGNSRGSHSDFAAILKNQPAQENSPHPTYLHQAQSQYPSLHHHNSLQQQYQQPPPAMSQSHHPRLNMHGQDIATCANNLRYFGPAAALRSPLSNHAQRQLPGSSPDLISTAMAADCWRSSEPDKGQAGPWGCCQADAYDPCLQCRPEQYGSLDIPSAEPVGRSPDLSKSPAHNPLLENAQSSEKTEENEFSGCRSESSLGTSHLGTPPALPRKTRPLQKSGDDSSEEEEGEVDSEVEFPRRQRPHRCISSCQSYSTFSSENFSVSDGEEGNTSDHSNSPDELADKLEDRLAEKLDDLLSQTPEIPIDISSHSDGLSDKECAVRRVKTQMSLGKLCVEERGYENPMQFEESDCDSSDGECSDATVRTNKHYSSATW
The test is described as follows: Selectivity interaction (KinomeScan (DiscoverX)) EUB0001049a MAP3K13. The following applies: at 1 µM.

In test [3] the target is Homeodomain-interacting protein kinase 1 (Homo sapiens, UniProt Q86Z02). The test is described as follows: Selectivity interaction (Kinase panel (Invitrogen)) EUB0000639a HIPK1. Conditions: at 200 nM.
Sequence of Homeodomain-interacting protein kinase 1 (Q86Z02 whole entry, looked up): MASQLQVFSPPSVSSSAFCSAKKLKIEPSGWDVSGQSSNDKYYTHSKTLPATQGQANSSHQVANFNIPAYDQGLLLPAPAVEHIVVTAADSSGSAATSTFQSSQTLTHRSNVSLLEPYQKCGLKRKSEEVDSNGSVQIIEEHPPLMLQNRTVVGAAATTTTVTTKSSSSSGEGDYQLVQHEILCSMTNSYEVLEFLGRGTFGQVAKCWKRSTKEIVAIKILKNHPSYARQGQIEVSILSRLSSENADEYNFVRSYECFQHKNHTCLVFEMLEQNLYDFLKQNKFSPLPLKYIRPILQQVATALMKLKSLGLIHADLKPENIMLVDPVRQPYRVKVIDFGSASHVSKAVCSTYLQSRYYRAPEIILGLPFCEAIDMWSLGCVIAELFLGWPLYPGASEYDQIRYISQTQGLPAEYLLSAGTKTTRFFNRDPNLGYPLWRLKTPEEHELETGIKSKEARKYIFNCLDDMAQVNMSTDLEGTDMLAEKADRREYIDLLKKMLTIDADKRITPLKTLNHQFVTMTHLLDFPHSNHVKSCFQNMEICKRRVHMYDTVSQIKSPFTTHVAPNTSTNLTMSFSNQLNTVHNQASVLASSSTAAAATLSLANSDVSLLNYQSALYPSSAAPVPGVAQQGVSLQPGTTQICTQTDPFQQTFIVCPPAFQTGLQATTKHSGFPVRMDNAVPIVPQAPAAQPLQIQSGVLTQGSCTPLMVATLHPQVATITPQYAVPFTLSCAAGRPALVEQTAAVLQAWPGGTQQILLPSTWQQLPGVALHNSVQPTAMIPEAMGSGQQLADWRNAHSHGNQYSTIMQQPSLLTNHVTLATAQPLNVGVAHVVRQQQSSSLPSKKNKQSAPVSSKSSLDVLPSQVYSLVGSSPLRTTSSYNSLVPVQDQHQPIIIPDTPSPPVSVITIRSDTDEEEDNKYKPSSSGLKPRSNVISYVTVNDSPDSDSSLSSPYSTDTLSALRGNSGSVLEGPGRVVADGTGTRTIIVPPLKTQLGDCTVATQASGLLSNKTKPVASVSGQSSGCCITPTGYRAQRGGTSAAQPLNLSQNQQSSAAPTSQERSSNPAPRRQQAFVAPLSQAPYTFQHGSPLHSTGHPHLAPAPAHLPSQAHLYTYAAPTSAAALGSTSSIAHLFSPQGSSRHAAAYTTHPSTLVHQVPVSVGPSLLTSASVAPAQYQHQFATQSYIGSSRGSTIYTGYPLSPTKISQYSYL
Test [4] addresses T3, Serine/threonine-protein kinase TBK1 (Homo sapiens) (UniProt Q9UHD2).
T3 sequence (whole entry): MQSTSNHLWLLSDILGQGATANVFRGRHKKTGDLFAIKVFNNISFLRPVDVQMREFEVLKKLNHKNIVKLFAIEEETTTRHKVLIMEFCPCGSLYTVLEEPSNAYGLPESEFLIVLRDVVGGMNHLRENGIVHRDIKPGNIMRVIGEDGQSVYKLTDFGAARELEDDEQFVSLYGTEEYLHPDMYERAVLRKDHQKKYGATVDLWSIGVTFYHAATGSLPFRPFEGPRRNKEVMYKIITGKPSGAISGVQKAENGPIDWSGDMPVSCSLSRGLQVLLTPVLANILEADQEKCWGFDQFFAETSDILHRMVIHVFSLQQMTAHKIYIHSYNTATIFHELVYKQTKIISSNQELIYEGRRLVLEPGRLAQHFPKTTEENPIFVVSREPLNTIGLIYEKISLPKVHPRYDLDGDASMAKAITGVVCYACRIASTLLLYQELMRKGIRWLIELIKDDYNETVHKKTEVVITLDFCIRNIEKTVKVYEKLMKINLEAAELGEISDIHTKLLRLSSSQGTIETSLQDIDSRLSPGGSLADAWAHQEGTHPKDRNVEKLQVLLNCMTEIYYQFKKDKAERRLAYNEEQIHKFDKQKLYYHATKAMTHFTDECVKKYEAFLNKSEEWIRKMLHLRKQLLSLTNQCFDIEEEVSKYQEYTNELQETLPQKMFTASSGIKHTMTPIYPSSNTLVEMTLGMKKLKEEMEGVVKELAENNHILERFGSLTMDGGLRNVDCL
Description: Selectivity interaction (KinomeScan (DiscoverX)) EUB0000229b TBK1. The following applies: at 10 µM.

Test [5] addresses T4, Uncharacterized serine/threonine-protein kinase SBK3 (Homo sapiens) (UniProt P0C264).
T4 sequence (whole entry): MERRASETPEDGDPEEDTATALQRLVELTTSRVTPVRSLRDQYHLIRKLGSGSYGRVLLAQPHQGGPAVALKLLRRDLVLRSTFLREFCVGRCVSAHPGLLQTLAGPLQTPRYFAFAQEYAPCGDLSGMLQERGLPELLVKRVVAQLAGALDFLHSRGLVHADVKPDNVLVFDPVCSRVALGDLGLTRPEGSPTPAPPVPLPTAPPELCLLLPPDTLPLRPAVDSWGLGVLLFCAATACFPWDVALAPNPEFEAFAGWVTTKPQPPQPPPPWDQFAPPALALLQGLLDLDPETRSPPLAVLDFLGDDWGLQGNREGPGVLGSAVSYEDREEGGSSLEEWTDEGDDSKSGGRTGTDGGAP
The test is described as follows: Selectivity interaction (KinomeScan (DiscoverX)) EUB0001619a SBK3. The following applies: at 1 µM.

Regarding `CCC(=O)N1CCN(c2ccc(-n3c(=O)ccc4cnc5ccc(-c6cnc7ccccc7c6)cc5c43)cc2C(F)(F)F)CC1`, in test [1], the % of control was 68%.

`COc1cc(Nc2nc(C)cc(-c3cnn4nc(OC)ccc34)n2)cc(C(F)(F)F)c1`: the % of control in test [2] was determined as 95%.

As for `CC[C@@H]1[C@H](F)C(=O)N[C@@H]1COc1nccc2cc(C(N)=O)c(OC)cc12` [ZIMLOVISERTIB], in test [3], the % of inhibition was 7.68%.

In test [4], `COc1cc(N(C)c2ccnc3ccc(C(F)(F)F)cc23)cc(OC)c1OC` showed a % binding of 72%.

`N#Cc1cccc(-c2c[nH]c3ncnc(N4CCOCC4)c23)c1` gave a % of control in test [5] of 100%.
